According to patent US20090197926A1, “BENZIMIDAZOLES AND THEIR USE FOR THE TREATMENT OF DIABETES” (priority 2006, published 2009):

Biological target: T1, human DGAT1 (Homo sapiens, UniProt O75907)
T1 construct: made in house; host or cells: Sf9 insect cells (recombinant baculovirus); membrane fraction
T1 sequence (O75907 1-488): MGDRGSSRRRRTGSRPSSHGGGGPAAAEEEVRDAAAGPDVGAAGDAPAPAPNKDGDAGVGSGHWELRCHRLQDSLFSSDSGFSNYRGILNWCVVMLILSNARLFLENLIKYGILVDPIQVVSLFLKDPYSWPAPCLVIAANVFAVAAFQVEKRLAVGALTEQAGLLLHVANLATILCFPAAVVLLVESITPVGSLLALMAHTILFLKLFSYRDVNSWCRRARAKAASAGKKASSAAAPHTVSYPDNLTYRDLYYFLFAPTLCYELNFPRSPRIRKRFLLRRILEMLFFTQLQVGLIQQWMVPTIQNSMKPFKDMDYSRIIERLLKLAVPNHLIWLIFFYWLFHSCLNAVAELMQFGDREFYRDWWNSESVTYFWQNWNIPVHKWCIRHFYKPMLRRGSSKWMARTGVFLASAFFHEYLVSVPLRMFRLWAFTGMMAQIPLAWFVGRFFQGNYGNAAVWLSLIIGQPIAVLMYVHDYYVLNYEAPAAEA
Assay: Human Enzyme Assay (DGAT1 inhibition)
Assay type: biochemical
Conditions: human DGAT1 expressed in insect cell (sf9) membranes; 14C oleoyl coenzyme A, 1,2 dioleoyl-sn-glycerol, room temperature 30 minutes
Method: The in vitro assay to identify DGAT1 inhibitors uses human DGAT1 expressed in insect cell membranes as the enzyme source (Proc. Natl. Acad. Sci. 1998, 95, 13018-13023). Briefly, sf9 cells were infected with recombinant baculovirus containing human DGAT1 coding sequences and harvested after 48 h. Cells were lysed by sonication and membranes isolated by centrifuging at 28000 rpm for 1 h at 4° C. on a 41% sucrose gradient. The membrane fraction at the interphase was collected, washed, and stored in liquid nitrogen.
DGAT1 activity was assayed by a modification of the method described by Coleman (Methods in Enzymology 1992, 209, 98-102). Compound at 1-10 μM was incubated with 0.4 μg membrane protein, 5 mM MgCl2, and 100 μM 1,2 dioleoyl-sn-glycerol in a total assay volume of 200 μl in plastic tubes. The reaction was started by adding ^14C oleoyl coenzyme A (30 μM final concentration) and incubated at room temperature for 30 minutes. The reaction was stopped by adding 1.5 mL 2-propanol:heptane:water (80:20:2). Radioactive triolein product was separated into the organic phase by adding 1 mL heptane and 0.5 mL 0.1 M carbonate buffer pH 9.5. DGAT1 activity was quantified by counting aliquots of the upper heptane layer by liquid scintillography.

| Compound | IC50 |
| --- | --- |
| O=C(O)[C@H]1CC[C@H](Oc2ccc3nc(-c4nnc(Nc5cc(F)c(F)cc5F)o4)[nH]c3c2F)CC1 [Example 18, trans-4-[[4-fluoro-2-[5-[(2,4,5-trifluorophenyl)amino]-1,3,4-oxadiazol-2-yl]-3H-benzoimidazol-5-yl]oxy]cyclohexane-1-carboxylic Acid] | 16 nM |
| O=C(O)[C@H]1CC[C@@H](Oc2ccc3nc(-c4nnc(Nc5ccc(F)cc5)o4)[nH]c3c2F)CC1 [Example 15, cis-4-{4-Fluoro-2-[5-(4-fluorophenylamino)-1,3,4-oxadiazol-2-yl]-1H-benzimidazol-5-yloxy}cyclohexanecarboxylic Acid] | 19 nM |
| N#Cc1ccc(Nc2nnc(-c3nc4cc([C@H]5CC[C@H](CC(=O)O)CC5)ccc4[nH]3)o2)cc1 [Example 4, [trans-4-(2-{5-[(4-Cyanophenyl)amino]-1,3,4-oxadiazol-2-yl}-1H-benzimidazol-5-yl)cyclohexyl]acetic Acid] | 19 nM |
| O=C(O)[C@H]1CC[C@H](Oc2ccc3nc(-c4nnc(Nc5ccc(F)cc5)o4)[nH]c3c2F)CC1 [Example 16, trans-4-{4-Fluoro-2-[5-(4-fluorophenylamino)-1,3,4-oxadiazol-2-yl]-1H-benzimidazol-5-yloxy}cyclohexanecarboxylic acid] | 23 nM |
| O=C(O)C[C@H]1CC[C@H](c2ccc3[nH]c(-c4nnc(Nc5cc(F)c(F)cc5F)o4)nc3c2)CC1 [Example 1, trans-2-[4-[2-[5-[(2,4,5-Trifluorophenyl)amino]-1,3,4-oxadiazol-2-yl]-1H-benzoimidazol-5-yl]cyclohexyl]acetic Acid] | 11 nM |
| O=C(O)C[C@H]1CC[C@H](c2ccc3[nH]c(-c4nnc(Nc5ccc(F)c(F)c5)o4)nc3c2)CC1 [Example 2, trans-2-[4-[2-[5-[(3,4-Difluorophenyl)amino]-1,3,4-oxadiazol-2-yl]-1H-benzoimidazol-5-yl]cyclohexyl]acetic Acid] | 10 nM |
| O=C(O)C[C@H]1CC[C@H](c2ccc3[nH]c(-c4nnc(Nc5ccc6c(c5)OCCO6)o4)nc3c2)CC1 [Example 6, (4-{2-[5-(2,3-Dihydrobenzo[1,4]dioxin-6-ylamino)[1,3,4]oxadiazol-2-yl]-1H-benzimidazol-5-yl}cyclohexyl)acetic Acid] | 54 nM |
| O=C(O)[C@H]1CC[C@@H](Oc2ccc3nc(-c4nnc(Nc5cc(F)c(F)cc5F)o4)[nH]c3c2F)CC1 [Example 17, cis-4-[[4-fluoro-2-[5-[(2,4,5-trifluorophenyl)amino]-1,3,4-oxadiazol-2-yl]-3H-benzoimidazol-5-yl]oxy]cyclohexane-1-carboxylic Acid] | 13 nM |
| O=C(O)[C@H]1CC[C@H](Oc2ccc3nc(-c4nnc(Nc5cc(F)c(F)cc5F)o4)[nH]c3c2)CC1 [Example 14, trans-4-[[2-[5-[(2,4,5-Trifluorophenyl)amino]-1,3,4-oxadiazol-2-yl]-3H-benzoimidazol-5-yl]oxy]cyclohexane-1-carboxylic Acid] | 43 nM |

Second part, the compound after the results:

| IC50 | Compound |
| --- | --- |
| 8 nM | O=C(O)C[C@H]1CC[C@H](c2ccc3[nH]c(-c4nnc(Nc5cccc(Cl)c5)o4)nc3c2)CC1 [Example 8, (4-{2-[5-(3-Chlorophenylamino)[1,3,4]oxadiazol-2-yl]-1H-benzimidazol-5-yl}-cyclohexyl)acetic Acid] |
| 6 nM | O=C(O)C[C@H]1CC[C@H](c2ccc3[nH]c(-c4nnc(Nc5cccc(OCc6ccccc6)c5)o4)nc3c2)CC1 [Example 3, {trans-4-[2-(5-{[3-(Benzyloxy)phenyl]amino}-1,3,4-oxadiazol-2-yl)-1H-benzimidazol-5-yl]cyclohexyl}acetic Acid] |
| 2 nM | O=C(O)C[C@H]1CC[C@H](c2ccc3[nH]c(-c4nnc(Nc5ccc(Cl)cc5)o4)nc3c2)CC1 [Example 7, (4-{2-[5-(4-Chlorophenylamino)[1,3,4]oxadiazol-2-yl]-1H-benzimidazol-5-yl}-cyclohexyl)acetic Acid] |
| 10 nM | O=C(O)C[C@H]1CC[C@H](c2ccc3[nH]c(-c4nnc(Nc5ccc(F)cc5)o4)nc3c2)CC1 [Example 10, (4-{2-[5-(4-Fluorophenylamino)[1,3,4]oxadiazol-2-yl]-1H-benzimidazol-5-yl}cyclohexyl)acetic Acid] |
| 3 nM | (4-{2-[5-(3,4,5-Trifluorophenylamino)[1,3,4]oxadiazol-2-yl]-1H-benzimidazol-5-yl}cyclohexyl)acetic Acid [Example 11] |
